Experimental findings from paper PMC11311998, “AR71, Histamine H3 Receptor Ligand—In Vitro and In Vivo Evaluation (Anti-Inflammatory Activity, Metabolic Stability, Toxicity, and Analgesic Action)” (International Journal of Molecular Sciences, 2024) are described below.

Molecules are shown by their SMILES.

In the assay the test system is CCI-exposed mice. Description: tail flick test in CCI neuropathic pain model. The class given is in vivo, mouse. As to conditions: 20 mg/kg i.p. The procedure:
The effects of a single intraperitoneal (i.p.) injection of AR71 at doses of 5, 10, and 20 mg/kg on mechanical (von Frey test) and thermal (cold plate and tail flick tests) stimulus were evaluated on day 14 following sciatic nerve injury (Figure 15). There were seven to eight animals per group. All these tests were performed in three time series after the administration of the compound. In the case of the von Frey test—after 30, 90, and 180 min; the cold plate test—after 35, 95, and 185 min; and the tail flick test—after 40, 100, and 190 min.
The mice were randomly divided into four experimental groups. One group received a vehicle treatment (10% DMSO/10%(2-Hydroxypropyl)-β-cyclodextrin/water for injection, i.p.), while the other three groups were administered with AR71 at doses of 5, 10, or 20 mg/kg of body weight (b.w.), i.p. Baseline measurements for all tests were conducted before the compounds were injected, and the results are presented as percentages of the maximal possible effect (% MPE). […] All data from behavioural tests were analysed using a one-way ANOVA with Bonferroni’s multiple comparison post hoc test. […]
Tail flick latency was measured on the dorsal part of the tail at two-thirds of its length by applying a focused beam of light (thermal stimulus). The time interval between the thermal stimulus’s onset and the tail’s withdrawal from the beam was recorded. […]
For orientation: In hot-plate and tail-flick tests a longer latency is read as antinociception.

On to `COc1cc(/C=C/C(=O)c2ccc(OCCCN3CCCCC3)cc2)cc(OC)c1OC` [AR71, (E)-3-(3,4,5-trimethoxyphenyl)-1-(4-(3-(piperidin-1-yl)propoxy)phenyl)prop-2-en-1-one], for which the “effect in tail flick test vs vehicle” value (100 and 190 min (p < 0.001 and p < 0.01)) is given as “significant pain-relieving effects”; the “effect in tail flick test vs vehicle” value (40 min post-injection, p < 0.05) is on record as “significant analgesic effect”.
